pIC50: −log10 of the molar value.

This passage reports IC50 results from ChEMBL document CHEMBL4616596, “Structural insights into the active site of poly(ADP-ribose) glycohydrolase using docking modes of 6-hydroxy-3H-xanthen-3-one derivative inhibitors” (Bioorg Med Chem, 2020).

The target in the assay is Poly(ADP-ribose) glycohydrolase (Homo sapiens, UniProt Q86W56). Put plainly: Inhibition of recombinant human PARG assessed as mono(ADP-R) release using PAR as substrate measured after 15 mins by HPLC analysis.
Chain of Poly(ADP-ribose) glycohydrolase (Q86W56 whole entry): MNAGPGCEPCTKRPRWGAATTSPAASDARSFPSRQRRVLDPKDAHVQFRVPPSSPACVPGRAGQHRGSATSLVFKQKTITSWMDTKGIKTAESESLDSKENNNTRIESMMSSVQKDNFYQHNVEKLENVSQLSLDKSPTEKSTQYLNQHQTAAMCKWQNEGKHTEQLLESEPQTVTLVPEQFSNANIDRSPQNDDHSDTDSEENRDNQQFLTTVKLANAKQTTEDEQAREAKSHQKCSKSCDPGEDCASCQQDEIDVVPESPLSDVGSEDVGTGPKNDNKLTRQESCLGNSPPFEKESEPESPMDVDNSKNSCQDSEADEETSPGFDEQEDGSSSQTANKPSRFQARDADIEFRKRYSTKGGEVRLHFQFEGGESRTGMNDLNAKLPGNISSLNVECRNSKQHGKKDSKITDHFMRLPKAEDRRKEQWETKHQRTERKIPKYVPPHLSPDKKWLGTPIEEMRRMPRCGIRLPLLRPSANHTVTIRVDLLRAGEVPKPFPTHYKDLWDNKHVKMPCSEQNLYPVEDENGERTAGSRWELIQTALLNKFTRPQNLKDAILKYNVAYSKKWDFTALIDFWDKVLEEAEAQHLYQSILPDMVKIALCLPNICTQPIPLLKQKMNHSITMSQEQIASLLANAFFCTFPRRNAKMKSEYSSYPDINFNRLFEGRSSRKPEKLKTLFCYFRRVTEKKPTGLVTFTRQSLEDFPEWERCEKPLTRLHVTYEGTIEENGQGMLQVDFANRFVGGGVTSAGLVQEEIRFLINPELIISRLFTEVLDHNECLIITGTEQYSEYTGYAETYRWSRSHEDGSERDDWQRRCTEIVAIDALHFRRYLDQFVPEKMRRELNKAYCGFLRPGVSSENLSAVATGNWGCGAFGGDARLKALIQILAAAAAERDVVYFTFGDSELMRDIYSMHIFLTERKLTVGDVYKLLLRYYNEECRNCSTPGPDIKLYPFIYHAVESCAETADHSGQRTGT
Usually pIC50 stands for −log10 of the IC50, conventionally taken in molar units. As to `O=C(O)c1c(Cl)c(Cl)c(Cl)c(Cl)c1-c1c2cc(I)c(=O)c(I)c-2oc2c(I)c(O)c(I)cc12` [ROSE BENGAL FREE ACID], the pIC50 is 4.53.

For `O=C(O)c1ccccc1-c1c2cc(Br)c(=O)c(Br)c-2oc2c(Br)c(O)c(Br)cc12`, the pIC50 is less than 3.52.

`O=C(O)c1ccccc1-c1c2cc(I)c(=O)c(I)c-2oc2c(I)c(O)c(I)cc12`: the pIC50 was 3.92.

As to `O=C(O)c1c(Cl)ccc(Cl)c1-c1c2cc(I)c(=O)c(I)c-2oc2c(I)c(O)c(I)cc12`, the pIC50 was 4.21.

As for `O=C(O)c1c(Cl)c(Cl)c(Cl)c(Cl)c1-c1c2cc(Br)c(=O)c(Br)c-2oc2c(Br)c(O)c(Br)cc12`, the pIC50 was 3.98.
